Like-named read-outs stand apart in the source and are kept apart here.
How the values were obtained:
[1] = molecular target: T1, cytoplasmic domain (amino acids 1058-1620) of wild-type human ALK (Homo sapiens, UniProt Q9UM73); assay: ALK inhibition in enzyme assay (Lance TR-FRET); assay type: biochemical
T1 construct: cytoplasmic domain (amino acids 1058-1620) of wild-type human ALK; GST (N); made in house; host or cells: SF9 cells

[2] = molecular target: EGFR(T790M) (Homo sapiens, UniProt P00533, T790M); assay: Off-chip mobility shift kinase assay, EGFR [T790M]; assay type: biochemical; conditions: Srctide 1000 nM, ATP 1 μM, Mg + Mn 5 + 1 mM
[3] = molecular target: FAK (Homo sapiens, UniProt Q05397); assay: Off-chip mobility shift kinase assay, FAK; assay type: biochemical; conditions: Blk/Lyntide 1000 nM, ATP 25 μM, Mg 5 mM
[4] = molecular target: FLT1 (Homo sapiens, UniProt P17948); assay: Off-chip mobility shift kinase assay, FLT1; assay type: biochemical; conditions: CSKtide 1000 nM, ATP 150 μM, Mg 5 mM, reaction time 5 hours
[5] = molecular target: FLT4 (Homo sapiens, UniProt P35916); assay: Off-chip mobility shift kinase assay, FLT4; assay type: biochemical; conditions: CSKtide 1000 nM, ATP 75 μM, Mg 5 mM
[6] = molecular target: KDR (Homo sapiens, UniProt P35968); assay: Off-chip mobility shift kinase assay, KDR; assay type: biochemical; conditions: CSKtide 1000 nM, ATP 75 μM, Mg 5 mM
[7] = molecular target: RET (Homo sapiens, UniProt P07949); assay: Off-chip mobility shift kinase assay, RET; assay type: biochemical; conditions: CSKtide 1000 nM, ATP 10 μM, Mg 5 mM
[8] = molecular target: RET(G691S) (Homo sapiens, UniProt P07949, G691S); assay: Off-chip mobility shift kinase assay, RET [G691S]; assay type: biochemical; conditions: CSKtide 1000 nM, ATP 10 μM, Mg 5 mM
[9] = molecular target: RET(M918T) (Homo sapiens, UniProt P07949, M918T); assay: Off-chip mobility shift kinase assay, RET [M918T]; assay type: biochemical; conditions: CSKtide 1000 nM, ATP 5 μM, Mg 5 mM
[10] = molecular target: RET(S 891A) (Homo sapiens, UniProt P07949, S891A); assay: Off-chip mobility shift kinase assay, RET [S891A]; assay type: biochemical; conditions: CSKtide 1000 nM, ATP 10 μM, Mg 5 mM
[11] = molecular target: RET(Y791F) (Homo sapiens, UniProt P07949, Y791F); assay: Off-chip mobility shift kinase assay, RET [Y791F]; assay type: biochemical; conditions: CSKtide 1000 nM, ATP 25 μM, Mg 5 mM
[12] = molecular target: TRKA (Homo sapiens, UniProt P04629); assay: Off-chip mobility shift kinase assay, TRKA; assay type: biochemical; conditions: CSKtide 1000 nM, ATP 75 μM, Mg 5 mM
[13] = molecular target: TRKB (Homo sapiens, UniProt Q16620); assay: Off-chip mobility shift kinase assay, TRKB; assay type: biochemical; conditions: Srctide 1000 nM, ATP 75 μM, Mg 5 mM
[14] = molecular target: TRKC (Homo sapiens, UniProt Q16288); assay: Off-chip mobility shift kinase assay, TRKC; assay type: biochemical; conditions: Srctide 1000 nM, ATP 50 μM, Mg 5 mM
[15] = molecular target: T2, FLT3 (Homo sapiens, UniProt P36888); assay: Off-chip mobility shift kinase assay, FLT3; assay type: biochemical; conditions: Srctide 1000 nM, ATP 100 μM, Mg 5 mM
T2 sequence (P36888 27-993): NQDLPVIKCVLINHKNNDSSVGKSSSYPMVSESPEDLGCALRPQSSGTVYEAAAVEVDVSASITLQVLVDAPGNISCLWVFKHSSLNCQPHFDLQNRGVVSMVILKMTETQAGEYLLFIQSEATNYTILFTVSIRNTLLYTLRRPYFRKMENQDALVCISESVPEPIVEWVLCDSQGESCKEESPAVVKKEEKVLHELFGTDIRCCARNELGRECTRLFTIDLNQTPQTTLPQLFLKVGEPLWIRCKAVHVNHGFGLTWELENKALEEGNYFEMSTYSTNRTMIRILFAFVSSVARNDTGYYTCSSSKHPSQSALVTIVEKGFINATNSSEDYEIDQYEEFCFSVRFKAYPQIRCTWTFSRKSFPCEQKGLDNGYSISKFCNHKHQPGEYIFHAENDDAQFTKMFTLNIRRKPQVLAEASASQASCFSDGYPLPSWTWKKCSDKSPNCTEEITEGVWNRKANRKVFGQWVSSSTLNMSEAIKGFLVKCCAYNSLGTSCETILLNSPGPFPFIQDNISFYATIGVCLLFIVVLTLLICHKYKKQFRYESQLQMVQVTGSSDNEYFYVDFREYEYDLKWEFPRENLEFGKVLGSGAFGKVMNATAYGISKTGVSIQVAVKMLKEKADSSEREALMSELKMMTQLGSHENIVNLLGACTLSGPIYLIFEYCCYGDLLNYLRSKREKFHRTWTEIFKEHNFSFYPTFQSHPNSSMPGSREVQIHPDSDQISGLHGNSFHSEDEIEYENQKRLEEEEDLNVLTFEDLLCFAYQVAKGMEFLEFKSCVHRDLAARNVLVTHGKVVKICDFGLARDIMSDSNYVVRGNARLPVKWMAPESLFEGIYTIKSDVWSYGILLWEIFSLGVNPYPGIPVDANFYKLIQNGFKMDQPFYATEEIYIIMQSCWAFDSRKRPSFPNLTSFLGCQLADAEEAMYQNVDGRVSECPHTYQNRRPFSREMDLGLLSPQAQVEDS

[16] = molecular target: T3, NGF (Homo sapiens, UniProt P01138); conditions: osteoarthritis pain study, cited from earlier work
T3 construct: host or cells: patients (endogenous NGF)

CC(C)N(C)C(=O)[C@H]1CC[C@@H](n2/c(=N/C(=O)c3ccc(F)cc3)[nH]c3cnc(CN4CCCCC4)cc32)CC1 [Example 46]
IC50 [1]: < 50 nM

CC(=O)[C@H]1CC[C@@H](n2/c(=N/C(=O)c3cccc(F)c3)[nH]c3ccc(CO)cc32)CC1 [Example 70]
IC50 [1]: 1000 to 5000 nM

CCOC(=O)[C@H]1CC[C@@H](n2/c(=N/C(=O)c3cccc(F)c3)[nH]c3cnc(OCCN4CCC(C(C)(C)O)CC4)cc32)CC1 [Example 79]
IC50 [1]: 1000 to 5000 nM

CNC(=O)[C@]1(O)CC[C@@H](n2/c(=N/C(=O)c3ccc(F)cc3)[nH]c3cnc(OCCN4CCCCC4)cc32)CC1 [Example 82]
IC50 [1]: 1000 to 5000 nM

CNC(=O)[C@]1(O)CC[C@H](n2/c(=N/C(=O)c3ccc(F)cc3)[nH]c3cnc(OCCN4CCCCC4)cc32)CC1 [Example 83]
IC50 [1]: 100 to 1000 nM

COC(=O)[C@H]1CC[C@@H](n2/c(=N/C(=O)c3ccc(F)cc3)[nH]c3cnc(CN4CCOCC4)cc32)CC1 [Example 85]
IC50 [1]: < 50 nM

CC(C)NC(=O)[C@H]1CC[C@@H](n2/c(=N/Cc3ccc4ccsc4c3)[nH]c3cnc(OCCN4CCCCC4)cc32)CC1 [Example 87]
IC50 [1]: 50 to 100 nM

O=C(/N=c1\[nH]c2cnc(OCCN3CCCCC3)cc2n1[C@H]1CC[C@@H](C(=O)N2CCNCC2)CC1)c1ccc(F)cc1 [Example 124]
IC50 [1]: 100 to 1000 nM

CC(C)NC(=O)[C@H]1CC[C@@H](n2/c(=N/C(=O)c3cccc(F)c3)[nH]c3cnc(OCCN4CCC(C(C)(C)O)CC4)cc32)CC1 [Example 130]
IC50 [1]: < 50 nM

C=CCNS(=O)(=O)c1cccc(C(=O)/N=c2\[nH]c3cnc(OCCN4CCC(C(C)(C)O)CC4)cc3n2[C@H]2CC[C@H](C(=O)NC(C)C)CC2)c1 [Example 131]
IC50 [1]: 100 to 1000 nM

CC(C)NC(=O)[C@H]1CC[C@@H](n2/c(=N/C(=O)c3ccc(F)c(C#N)c3)[nH]c3ccc(CN4CCC(C(C)(C)O)CC4)cc32)CC1 [Example 146]
IC50 [1]: < 50 nM

CC(C)NC(=O)[C@H]1CC[C@@H](N2c3cc(O)ccc3NC2NC(=O)c2ccc(F)cc2)CC1 (stereo partly drawn) [Example 154]
IC50 [1]: < 50 nM

CC(C)NC(=O)[C@H]1CC[C@@H](n2/c(=N/C(=O)c3ccc(F)cc3)[nH]c3ccc(CN4CCN(S(=O)(=O)O)CC4)cc32)CC1 [Example 172]
IC50 [1]: < 50 nM

CC(C)NC(=O)[C@H]1CC[C@@H](n2/c(=N/C(=O)c3ccc(F)cc3)[nH]c3ccc(CN4CCN(C(N)=O)CC4)cc32)CC1 [Example 177]
IC50 [1]: < 50 nM

CC(C)C(=O)N[C@H]1CC[C@@H](n2/c(=N/C(=O)c3ccc(F)cc3)[nH]c3cnc(CN4CCC(C(C)(C)O)CC4)cc32)CC1 [Example 227]
IC50 [1]: 50 to 100 nM

CC(=O)N[C@H]1CC[C@H](n2/c(=N/C(=O)c3cccc(F)c3)[nH]c3ccc(CN4CCC(C(C)(C)O)CC4)cc32)CC1 [Example 229]
IC50 [1]: 50 to 100 nM

CCCNS(=O)(=O)c1cccc(C(=O)/N=c2\[nH]c3cnc(OCCN4CCCCC4)cc3n2C2CCC(C(N)=O)CC2)c1 (stereo not drawn) [Example 244]
IC50 ([1]; 2 nM enzyme, ATP 40 μM (Km apparent), 90 minutes, mean of three replicates): 50 to 100 nM

CC(C)NC(=O)[C@H]1CC[C@@H](n2/c(=N/C(=O)c3ccc(F)cc3)[nH]c3ccc(CN4CCC(C(C)(C)O)CC4)cc32)CC1 [I-a]
IC50 [2]: > 1000 nM | IC50 [3]: 1 to 100 nM | IC50 [4]: > 1000 nM | IC50 [5]: > 1000 nM | IC50 [6]: > 1000 nM | IC50 [7]: 1 to 100 nM | IC50 [8]: 1 to 100 nM | IC50 [9]: 1 to 100 nM | IC50 [10]: 1 to 100 nM | IC50 [11]: 1 to 100 nM | IC50 [12]: < 1 nM | IC50 [13]: 1 to 100 nM | IC50 [14]: 1 to 100 nM

CC(C)NC(=O)[C@H]1CC[C@@H](n2/c(=N/C(=O)c3cc(F)cc(F)c3)[nH]c3ccc(CN4CCC(C(C)(C)O)CC4)cc32)CC1 [I-b]
IC50 [2]: > 1000 nM | IC50 [3]: 101 to 500 nM | IC50 [4]: > 1000 nM | IC50 [15]: 1 to 100 nM | IC50 [5]: > 1000 nM | IC50 [6]: > 1000 nM | IC50 [7]: > 1000 nM | IC50 [8]: > 1000 nM | IC50 [9]: > 1000 nM | IC50 [10]: 101 to 500 nM | IC50 [11]: > 1000 nM | IC50 [12]: 1 to 100 nM | IC50 [13]: 1 to 100 nM | IC50 [14]: 1 to 100 nM

tanezumab
adverse event: headache ([16]; among patients): 9% | adverse event: paresthesia ([16]; among patients): 7% | adverse event: upper respiratory infection ([16]; among patients): 7% | rate of adverse events ([16]; 55% in placebo group): 68%

Source: US20150306086A1, “MODULATING CERTAIN TYROSINE KINASES” (Tesaro, Inc., priority 2011, published 2015)
